Measured values taken from PMC8667942 (Journal of Enzyme Inhibition and Medicinal Chemistry, 2021).

Experiments:
Assay in all cases: Direct CYP inhibition assay, pooled human liver microsomes, LC-MS/MS
Format in all cases: in vitro ADME
CYP2C8 = molecular target: T1, CYP2C8 (Homo sapiens, UniProt P10632); settings: pooled HLMs, up to 50 μM, amodiaquine substrate
T1 construct: from tissue; host or cells: pooled human liver microsomes
T1 sequence (P10632 1-490): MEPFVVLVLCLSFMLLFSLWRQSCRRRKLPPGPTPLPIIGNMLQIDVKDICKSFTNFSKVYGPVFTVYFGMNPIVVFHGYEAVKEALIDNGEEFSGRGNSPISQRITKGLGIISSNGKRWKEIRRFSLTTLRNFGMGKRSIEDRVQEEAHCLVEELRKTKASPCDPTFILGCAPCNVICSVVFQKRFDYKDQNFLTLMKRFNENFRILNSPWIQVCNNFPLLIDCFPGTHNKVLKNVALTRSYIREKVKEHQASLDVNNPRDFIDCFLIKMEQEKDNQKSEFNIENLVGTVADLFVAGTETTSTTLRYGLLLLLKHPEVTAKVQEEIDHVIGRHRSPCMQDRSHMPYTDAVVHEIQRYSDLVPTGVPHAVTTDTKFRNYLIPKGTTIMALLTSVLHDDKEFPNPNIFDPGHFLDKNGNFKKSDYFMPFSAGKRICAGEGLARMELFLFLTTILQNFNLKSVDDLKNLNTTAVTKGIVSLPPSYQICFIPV
Method: (§1) Reactions were incubated in eight-well strips placed in an 8 × 12 racks (1.2 ml; VWR, Emeryville, CA). The incubation mixtures (final volume, 200 μL) contained 0.2 mg/mL HLMs, 0.1 M phosphate buffer (pH 7.4), 1 mM NADPH, and various CYP isoform-specific substrate cocktail sets (A set: phenacetin, coumarin, amodiaquine, S-mephenytoin, dextromethorphan, and midazolam; B set: bupropion, tolbutamide, chlorzoxazone, and testosterone). […] Substrates were dissolved and serially diluted with acetonitrile to the required concentration in all experiments. […] The reactions were incubated at 37 °C in a shaking water bath. The reactions were terminated by placing the incubation tubes on ice, adding 200 μL of cold acetonitrile containing carbamazepine (100 nM) and 4-methylumbelliferone (500 nM) as an internal standard after 10 min, and agitating with a vortex mixer before centrifugation. The samples for each enzyme assay were centrifuged at 3,000 × g for 20 min at 4 °C, and supernatants of the individual reaction samples and pooled cocktail incubation samples (A set: B set, 1:1) were analysed using LC-MS/MS.
(§2) Sample injection volume was 10 μL, and separation was performed on an Atlantis™ dC18 column (2.1 × 50 mm i.d., 3 μm; Waters, Milford, MA, USA) and Luna™5u C18 column (2.0 × 30 mm i.d.; Phenomenex, Torrance, CA, USA) with a SecurityGuard™ C18 guard column (2.0 × 4.0 mm i.d.; Phenomenex, Torrance, CA, USA) maintained at 30 °C. The column was pre-equilibrated in 100% v/v solvent A (deionized water containing 0.1% v/v formic acid)/0% v/v solvent B (acetonitrile containing 0.1% v/v formic acid) at a flow rate of 0.4 ml/min. […] Quadrupoles Q1 and Q3 were set on unit resolution. The samples were analysed via multiple reaction monitoring (MRM) and enhanced product ion (EPI) scan mode. The turbo ion spray interface was operated in the positive ion mode at 5,500 V. The operating conditions were determined as follows: ion source temperature, 600 °C; nebulising gas flow, 50 L/min; auxiliary gas flow, 4.0 L/min; curtain gas flow, 20 L/min; collision gas (nitrogen) pressure 3.6 × 10^−5 Torr. Nitrogen gas was used for CUR, CAD, and NEB. The MRM transitions, collision energies and retention time were determined for each metabolite. The samples were analysed via MRM as described in our previous study. The scan dwell time was set at 0.08 s for every channel. Data acquisition and analysis was performed using the Analyst™ software (version 1.5.2; Applied Biosystems, Foster City, CA, USA).

CYP2E1 = molecular target: T2, CYP2E1 (Homo sapiens, UniProt P05181); settings: pooled HLMs, up to 50 μM, chlorzoxazone substrate
T2 construct: from tissue; host or cells: pooled human liver microsomes
T2 sequence (P05181 whole entry): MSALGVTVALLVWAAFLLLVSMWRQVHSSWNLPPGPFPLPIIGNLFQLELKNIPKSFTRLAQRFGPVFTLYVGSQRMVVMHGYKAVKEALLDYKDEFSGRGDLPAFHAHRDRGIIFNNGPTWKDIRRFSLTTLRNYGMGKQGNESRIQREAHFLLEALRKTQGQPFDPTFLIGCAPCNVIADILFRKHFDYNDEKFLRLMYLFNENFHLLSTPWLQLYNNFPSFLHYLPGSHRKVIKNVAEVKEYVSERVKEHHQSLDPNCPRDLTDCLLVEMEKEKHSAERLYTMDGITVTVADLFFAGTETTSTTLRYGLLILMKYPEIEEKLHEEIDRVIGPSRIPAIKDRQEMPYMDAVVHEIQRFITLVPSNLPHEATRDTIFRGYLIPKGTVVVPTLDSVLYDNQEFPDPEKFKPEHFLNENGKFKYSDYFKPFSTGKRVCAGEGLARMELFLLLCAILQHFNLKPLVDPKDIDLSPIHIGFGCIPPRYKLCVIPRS
Method: as §1, §2

CYP2A6 = molecular target: T3, CYP2A6 (Homo sapiens, UniProt P11509); settings: pooled HLMs, up to 50 μM, coumarin substrate
T3 construct: from tissue; host or cells: pooled human liver microsomes
T3 sequence (P11509 1-494): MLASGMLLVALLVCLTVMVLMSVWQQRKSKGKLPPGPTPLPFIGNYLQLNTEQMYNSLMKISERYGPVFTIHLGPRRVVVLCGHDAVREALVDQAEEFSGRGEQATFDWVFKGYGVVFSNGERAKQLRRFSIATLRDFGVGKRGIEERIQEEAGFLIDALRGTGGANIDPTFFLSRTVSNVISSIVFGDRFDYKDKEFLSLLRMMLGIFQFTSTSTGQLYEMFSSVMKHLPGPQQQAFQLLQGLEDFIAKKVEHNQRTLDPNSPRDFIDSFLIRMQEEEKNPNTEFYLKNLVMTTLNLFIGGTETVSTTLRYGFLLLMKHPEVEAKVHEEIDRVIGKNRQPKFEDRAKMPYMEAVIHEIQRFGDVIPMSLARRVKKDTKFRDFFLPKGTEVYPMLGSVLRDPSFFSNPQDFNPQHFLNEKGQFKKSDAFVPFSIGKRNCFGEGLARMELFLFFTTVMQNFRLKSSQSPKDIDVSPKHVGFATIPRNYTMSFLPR
Method: as §1, §2

CYP2D6 = molecular target: T4, CYP2D6 (Homo sapiens, UniProt P10635); settings: pooled HLMs, up to 50 μM, dextromethorphan substrate
T4 construct: from tissue; host or cells: pooled human liver microsomes
T4 sequence (P10635 whole entry): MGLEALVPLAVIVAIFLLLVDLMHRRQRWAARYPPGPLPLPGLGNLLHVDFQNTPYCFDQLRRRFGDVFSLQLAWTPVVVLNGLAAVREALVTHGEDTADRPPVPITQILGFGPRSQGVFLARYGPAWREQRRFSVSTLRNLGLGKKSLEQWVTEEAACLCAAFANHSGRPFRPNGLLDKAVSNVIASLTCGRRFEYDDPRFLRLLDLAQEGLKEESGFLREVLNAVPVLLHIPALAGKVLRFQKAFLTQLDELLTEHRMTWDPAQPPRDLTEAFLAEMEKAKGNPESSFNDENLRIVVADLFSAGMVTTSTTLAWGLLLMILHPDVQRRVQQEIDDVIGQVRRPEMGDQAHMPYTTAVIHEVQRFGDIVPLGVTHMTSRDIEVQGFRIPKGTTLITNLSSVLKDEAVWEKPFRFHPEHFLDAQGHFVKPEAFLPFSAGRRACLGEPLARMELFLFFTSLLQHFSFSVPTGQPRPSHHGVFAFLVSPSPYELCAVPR
Method: as §1, §2

CYP2B6 = molecular target: T5, CYP2B6 (Homo sapiens, UniProt P20813); settings: pooled HLMs, up to 50 μM, bupropion substrate
T5 construct: from tissue; host or cells: pooled human liver microsomes
T5 sequence (P20813 1-491): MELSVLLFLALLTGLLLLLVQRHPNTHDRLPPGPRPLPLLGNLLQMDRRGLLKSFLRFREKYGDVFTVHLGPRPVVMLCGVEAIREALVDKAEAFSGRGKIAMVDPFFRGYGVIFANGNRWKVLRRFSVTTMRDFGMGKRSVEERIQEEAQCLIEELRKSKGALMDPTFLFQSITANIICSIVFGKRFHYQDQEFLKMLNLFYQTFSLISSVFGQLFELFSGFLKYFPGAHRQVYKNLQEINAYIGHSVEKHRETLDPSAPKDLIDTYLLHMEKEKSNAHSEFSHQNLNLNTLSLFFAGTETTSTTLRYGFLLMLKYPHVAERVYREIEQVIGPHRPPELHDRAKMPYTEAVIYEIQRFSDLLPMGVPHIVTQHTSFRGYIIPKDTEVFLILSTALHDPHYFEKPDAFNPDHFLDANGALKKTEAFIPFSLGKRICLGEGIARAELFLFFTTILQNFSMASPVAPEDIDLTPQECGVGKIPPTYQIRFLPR
Method: as §1, §2

CYP2C9 = molecular target: T6, CYP2C9 (Homo sapiens, UniProt P11712); settings: pooled HLMs, up to 50 μM, tolbutamide substrate
T6 construct: from tissue; host or cells: pooled human liver microsomes
T6 sequence (P11712 whole entry): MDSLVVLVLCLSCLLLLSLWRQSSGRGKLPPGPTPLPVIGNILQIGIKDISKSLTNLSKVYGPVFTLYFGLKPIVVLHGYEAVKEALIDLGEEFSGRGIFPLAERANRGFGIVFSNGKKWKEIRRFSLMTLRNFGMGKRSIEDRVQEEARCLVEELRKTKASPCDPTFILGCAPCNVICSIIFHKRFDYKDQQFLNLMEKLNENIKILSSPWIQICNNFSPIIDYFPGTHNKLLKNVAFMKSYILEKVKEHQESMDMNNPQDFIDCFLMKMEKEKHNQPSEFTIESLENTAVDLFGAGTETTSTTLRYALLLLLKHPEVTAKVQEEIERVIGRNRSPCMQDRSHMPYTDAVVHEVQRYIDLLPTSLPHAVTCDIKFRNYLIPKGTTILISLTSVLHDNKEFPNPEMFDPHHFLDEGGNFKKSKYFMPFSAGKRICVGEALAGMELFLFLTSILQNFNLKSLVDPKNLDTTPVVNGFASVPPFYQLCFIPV
Method: as §1, §2

CYP2C19 = molecular target: T7, CYP2C19 (Homo sapiens, UniProt P33261); settings: pooled HLMs, up to 50 μM, S-mephenytoin substrate
T7 construct: from tissue; host or cells: pooled human liver microsomes
T7 sequence (P33261 whole entry): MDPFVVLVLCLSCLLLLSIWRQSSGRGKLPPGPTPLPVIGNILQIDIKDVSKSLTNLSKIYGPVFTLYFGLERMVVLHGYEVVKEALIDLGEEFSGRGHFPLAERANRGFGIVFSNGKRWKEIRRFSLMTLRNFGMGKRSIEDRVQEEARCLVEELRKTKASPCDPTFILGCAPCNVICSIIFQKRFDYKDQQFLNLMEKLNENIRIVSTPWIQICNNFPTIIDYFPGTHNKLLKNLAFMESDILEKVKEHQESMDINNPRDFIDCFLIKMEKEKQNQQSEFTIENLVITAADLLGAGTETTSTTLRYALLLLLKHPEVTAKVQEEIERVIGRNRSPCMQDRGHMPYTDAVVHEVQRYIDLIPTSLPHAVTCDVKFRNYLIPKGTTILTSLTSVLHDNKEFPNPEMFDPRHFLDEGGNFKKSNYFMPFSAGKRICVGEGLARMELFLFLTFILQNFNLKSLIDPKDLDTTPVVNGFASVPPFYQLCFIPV
Method: as §1, §2

O=[N+]([O-])c1ccc(CNc2nc(NCc3cccc(C(F)(F)F)c3)nc3[nH]cnc23)cc1 [TNP, N^6-[(4-nitrophenyl)methyl]-N^2-[[3-(trifluoromethyl)phenyl]methyl]-9H-purine-2,6-diamine]
no inhibitory effect: inhibitory effect on CYP2C8 (CYP2C8) | inhibitory effect on CYP2E1 (CYP2E1) | inhibitory effect on CYP2A6 (CYP2A6) | inhibitory effect on CYP2D6 (CYP2D6) | inhibitory effect on CYP2B6 (CYP2B6) | inhibitory effect on CYP2C9 (CYP2C9) | inhibitory effect on CYP2C19 (CYP2C19)
